Measured values taken from patent publication US9546194B2, “Aminosteroids for the treatment of a PTP1B associated disease” (Ohr Pharmaceutical Inc., priority 2012, dated 2017).

Assays:
full length TCPTP = biological target: T1, full length TCPTP (Homo sapiens, UniProt P17706); experiment: Inhibition of TCPTP (pNPP hydrolysis, same manner as PTP1B assay); type: biochemical; details: 200 μM inhibitor; pNPP substrate; read-out: TCPTP % Inhib. at (200 μM)
T1 construct: except full length TCPTP was used as the enzyme
T1 sequence (P17706 1-415): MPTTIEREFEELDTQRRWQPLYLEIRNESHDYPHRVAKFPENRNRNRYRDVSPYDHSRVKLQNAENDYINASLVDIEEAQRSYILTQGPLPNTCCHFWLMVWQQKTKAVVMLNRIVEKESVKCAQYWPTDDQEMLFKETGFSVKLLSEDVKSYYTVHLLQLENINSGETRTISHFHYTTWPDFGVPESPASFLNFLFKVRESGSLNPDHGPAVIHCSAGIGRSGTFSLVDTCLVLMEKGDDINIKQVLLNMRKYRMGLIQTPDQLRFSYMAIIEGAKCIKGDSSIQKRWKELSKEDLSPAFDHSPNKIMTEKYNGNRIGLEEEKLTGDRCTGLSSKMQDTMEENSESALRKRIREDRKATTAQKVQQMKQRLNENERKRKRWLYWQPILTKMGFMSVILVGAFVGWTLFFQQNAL
Protocol: (§1) The aminosteroid analogues were tested for inhibition against the commercially available full length tyrosine phosphatase PTP1B. The ability of each analogue to inhibit the activity of PTP1B was measured in the presence of 5 μM of the aminosteroid analogue. The assay uses para-nitro-phenyl phosphate (pNPP), a non-specific substrate to assess phosphatase activity. Phosphatase activity was based on the ability of PTP1B to catalyze the hydrolysis of pNPP to p-nitrophenol (pNP).
The aminosteroid analogues were also tested for their ability to inhibit the tyrosine phosphatase TCPTP as an indication of their potential toxicity by the inhibition of the immune response. The TCPTP inhibition assay was done in the same manner as the PTP1B assay except full length TCPTP was used as the enzyme and the inhibitor was at a concentration of 200 μM. The results of the TCPTP inhibition assays are shown in Table 1, column 4 and show three compounds that inhibit TCPTP less than 50% even at a […] greater concentration.

[1] = biological target: T2, full length tyrosine phosphatase PTP1B (Homo sapiens, UniProt P18031); experiment: Inhibition of PTP1B (pNPP hydrolysis, absorbance at 405 nm); type: biochemical; details: 5 μM aminosteroid analogue; pNPP substrate; read-out: PTP1B % Inhib. at (5 μM)
T2 construct: purchased
T2 sequence (P18031 1-435): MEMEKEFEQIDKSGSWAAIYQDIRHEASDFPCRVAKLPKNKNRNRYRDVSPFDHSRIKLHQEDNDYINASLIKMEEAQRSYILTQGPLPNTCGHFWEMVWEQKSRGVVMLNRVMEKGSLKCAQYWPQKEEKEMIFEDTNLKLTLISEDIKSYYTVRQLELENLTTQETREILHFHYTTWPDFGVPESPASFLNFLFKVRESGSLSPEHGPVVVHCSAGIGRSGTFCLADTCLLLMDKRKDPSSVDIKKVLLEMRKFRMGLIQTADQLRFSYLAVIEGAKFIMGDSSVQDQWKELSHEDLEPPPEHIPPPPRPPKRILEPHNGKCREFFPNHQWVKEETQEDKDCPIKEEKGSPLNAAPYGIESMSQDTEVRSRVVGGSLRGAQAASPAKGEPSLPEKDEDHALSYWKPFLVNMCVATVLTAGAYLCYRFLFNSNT
Protocol: as §1

ob/ob (Lep^ob) mouse [2] = experiment: Oral glucose tolerance test (OGTT) in ob/ob mouse; type: in vivo; details: ob/ob mice; for change in vivo: Mus musculus, 336 h, 5 or 10 mg/kg ip every 3 days, 4 doses, OGTT study day 14, 1.5 g/kg oral glucose, 0-120 min, read-out: AbAUC % Change From Saline; for reduction in AbAUC compared to saline control (significance): OGTT study day 14, p<0.05
Protocol: (§2) To determine in vivo efficacy of the aminosteroid analogues an ob/ob (Lep^ob) mouse model was used. Ob/ob mice are extensively used for screening of antidiabetic and/or anti-obesity agents. Ob/ob mice were treated with either saline or 5 or 10 mg/kg aminosteroid analogue every 3 days for a total of 4 doses via ip injection. Body weight, glucose tolerance and fasting blood glucose levels were measured for each group during the study. Each group had at least an N of 4 animals. All reagents and lab animals are commercially available.
On study day 14, an oral glucose tolerance test (OGTT) was performed to assess glucose tolerance. At time 0, an oral glucose challenge (1.5 g/kg) was administered by oral gavage. At time points 0, 15, 30, 60, 90, and 120 min post glucose load, 25 μl of whole blood was withdrawn from the tail vein of the animal and the glucose level was measured using a glucose analyzer. The glucose concentration vs time was plotted and the above baseline area under the curve (AbAUC) of the glucose excursion time curve was determined using trapezoidal rule analyses.

ob/ob (Lep^ob) mouse [3] = experiment: Fasting blood glucose (FBG) in ob/ob mouse; type: in vivo; details: ob/ob mice; 5 or 10 mg/kg ip every 3 days, 4 doses; study day 14 after overnight fast
Protocol: as §2
On study day 13, all animal groups were fasted overnight. On study day 14, 25 μL of whole blood was collected and analyzed for the glucose level (mg/dL) using a glucose analyzer.

[4] = Body weight change in ob/ob mouse; type: in vivo; details: ob/ob mice; 5 or 10 mg/kg ip every 3 days, 4 doses; % change in body weight vs study day 0, up to 30 days
Protocol: as §2
Starting at study day 0, body weight measurements were taken every day for each group for up to 30 days. Percent change in body weight was calculated as the fractional response of body weight on study day X over the original body weight on study day 0.

| SMILES | inhibition at 200 µM (full length TCPTP) [%] | inhibition at 5 µM [1] [%] | change in vivo (ob/ob (Lep^ob) mouse [2]) [%] | reduction in AbAUC compared to saline control (significance) (ob/ob (Lep^ob) mouse [2]) | FBG % Change From Saline (ob/ob (Lep^ob) mouse [3]) [%] | % BW Nader [4] [%] |
| --- | --- | --- | --- | --- | --- | --- |
| COC(=O)CC[C@@H](C)[C@H]1CCC2C3C(CC[C@@]21C)[C@@]1(C)CCC(NCCN(C)C)C[C@H]1C[C@H]3O (stereo partly shown) [MSI-2533] | 5 |  |  |  |  |  |
| COC(=O)CC[C@@H](C)[C@H]1CCC2C3C(CC[C@@]21C)[C@@]1(C)CCC(NCCNC(C)C)C[C@@H]1C[C@H]3S(C)(=O)=O (stereo partly shown) [MSI-2530] | 1 | 46 |  |  |  |  |
| COC(=O)CC[C@@H](C)[C@H]1CCC2C3C[C@H](O)[C@@H]4C[C@@H](NCCNC(C)C)CC[C@]4(C)C3CC[C@@]21C (stereo partly shown) [MSI-2524] | 15 | 103 |  |  |  |  |
| COC(=O)CC[C@@H](C)[C@H]1CCC2C3C(CC[C@@]21C)[C@@]1(C)CC[C@H](NCCCCNCc2cccnc2)C[C@@H]1C[C@H]3O (stereo partly shown) [MSI-2511] | 0 | 93 | -34.6 | significant reduction | 5.1 | −0.9 |
| COC(=O)CC[C@@H](C)[C@H]1CCC2C3C[C@@H](O)[C@H]4C[C@H](NCCNC(C)C)CC[C@]4(C)C3CC[C@@]21C (stereo partly shown) [MSI-2514] | 30 | 96 | -11.6 |  | 9.2 | −1.5 |
| COC(=O)CC[C@@H](C)[C@H]1CCC2C3CC[C@@H]4C[C@H](NCCN(C)C)CC[C@]4(C)C3CC[C@@]21C (stereo partly shown) [MSI-2534] | 0 |  |  |  |  |  |
| COC(=O)CC[C@@H](C)[C@H]1CCC2C3CC[C@@H]4C[C@@H](NCCNC(C)C)CC[C@]4(C)C3CC[C@@]21C (stereo partly shown) [MSI-2522] | 50 | 104 |  |  |  |  |
| COC(=O)CC[C@@H](C)[C@H]1CCC2C3C(CC[C@@]21C)[C@@]1(C)CC[C@@H](NCCN2CCCCC2)C[C@H]1C[C@H]3O (stereo partly shown) [MSI-2507] | -11 | 94 | -45.8 | significant reduction | −9.4 | 1.4 |
| COC(=O)CC[C@@H](C)[C@H]1CCC2C3C(CC[C@@]21C)[C@@]1(C)CCC(NCCNC(C)C)C[C@@H]1C[C@H]3NC(=O)OC (stereo partly shown) [MSI-2528] | 2 | 75 |  |  |  |  |
| CC(C)CCC[C@@H](C)[C@H]1CCC2C3C[C@@H](O)[C@H]4C[C@@H](NCCCNCCCCNCCCN)CC[C@]4(C)C3CC[C@@]21C (stereo partly shown) [MSI-2516] | 25 | 56 |  |  |  |  |
| CC(C)CCC[C@@H](C)[C@H]1CCC2C3C[C@@H](O)[C@H]4C[C@@H](NCCCN)CC[C@]4(C)C3CC[C@@]21C (stereo partly shown) [MSI-2505] |  | 39 |  |  |  |  |
| CCN(C(=O)NCCCN(C)C)C(=O)C(C)[C@H]1CCC2C3CC[C@H]4CC(NCCNC)CC[C@]4(C)C3CC[C@@]21C (stereo partly shown) [MSI-2501] |  | 0 |  |  |  |  |
| CC(C)[C@@H](CC[C@@H](C)[C@H]1CC[C@H]2[C@@H]3[C@H](O)C[C@H]4C[C@@H](NCCCNCCCCNCCCN)CC[C@]4(C)[C@H]3CC[C@]12C)OS(=O)(=O)O [MSI-1436, reference compound] |  | 54 | -55.9 |  | −51.3 | −52.6 |
| CC(C)CCC[C@@H](C)[C@H]1CCC2C3C[C@@H](O)[C@H]4C[C@H](NCCCN)CC[C@]4(C)C3CC[C@@]21C (stereo partly shown) [MSI-2504] | 22 | 43 |  |  |  |  |
| COC(=O)CC[C@@H](C)[C@H]1CCC2C3C(CC[C@@]21C)[C@@]1(C)CCC(NCCNC(C)C)C[C@@H]1C[C@H]3O (stereo partly shown) [MSI-2519] | 26 | 102 |  |  |  |  |
| COC(=O)CC[C@@H](C)[C@H]1CCC2C3CC[C@@H]4C[C@H](NCCNC(C)C)CC[C@]4(C)C3CC[C@@]21C (stereo partly shown) [MSI-2521] | 67 | 103 |  |  |  |  |
| CC(C)CCC[C@@H](C)[C@H]1CCC2C3C[C@@H](O)[C@H]4C[C@H](NCCCNCCCCNCCCN)CC[C@]4(C)C3CC[C@@]21C (stereo partly shown) [MSI-2517] | 11 | 51 |  |  |  |  |
| COC(=O)CC[C@@H](C)[C@H]1CCC2C3C(CC[C@@]21C)[C@@]1(C)CC[C@H](NCCNC(C)C)C[C@@H]1C[C@H]3S(C)(=O)=O (stereo partly shown) [MSI-2531] | 1 | 48 |  |  |  |  |
| COC(=O)CC[C@@H](C)[C@H]1CCC2C3CC[C@@H]4C[C@H](NCc5ccccn5)CC[C@]4(C)C3C[C@H](O)[C@@]21C (stereo partly shown) [MSI-2512] | -2 | 90 | -5.8 |  | 45.8 | 0.4 |
| CC(C)CCC[C@@H](C)[C@H]1CCC2C3C[C@@H](O)[C@H]4C[C@@H](NCCN)CC[C@]4(C)C3CC[C@@]21C (stereo partly shown) [MSI-2502] |  | 0 |  |  |  |  |
| COC(=O)CC[C@@H](C)[C@H]1CCC2C3C(CC[C@@]21C)[C@@]1(C)CC[C@H](NCCN2CCCCC2)C[C@@H]1C[C@H]3O (stereo partly shown) [MSI-2518] | 12 | 102 |  |  |  |  |
| COC(=O)CC[C@@H](C)[C@H]1CCC2C3CC[C@@H]4CC(NCCN(C)C)CC[C@]4(C)C3CC[C@@]21C (stereo partly shown) [MSI-2535] | 8 |  |  |  |  |  |
| COC(=O)CC[C@@H](C)[C@H]1CCC2C3C[C@H](O)[C@@H]4C[C@H](NCCNC(C)C)CC[C@]4(C)C3CC[C@@]21C (stereo partly shown) [MSI-2523] | 8 | 101 |  |  |  |  |
| CCNC(=O)N(CCCN(C)C)C(=O)C(C)[C@H]1CCC2C3CC[C@H]4CC(NCCNC)CC[C@]4(C)C3CC[C@@]21C (stereo partly shown) [MSI-2500] |  | 0 |  |  |  |  |
| CC(C)NCCNC1CC[C@]2(C)C3CC[C@@]4(C)C(CC[C@@H]4[C@H](C)CCC(=O)O)C3C[C@@H](O)[C@H]2C1 (stereo partly shown) [MSI-2515] | 19 | 89 |  |  |  |  |
| CC(C)CCC[C@@H](C)[C@H]1CCC2C3C[C@@H](O)[C@H]4C[C@H](NCCCNCCCCN)CC[C@]4(C)C3CC[C@@]21C (stereo partly shown) [MSI-2506] | 60 | 60 |  |  |  |  |
| COC(=O)CC[C@@H](C)[C@H]1CCC2C3C(CC[C@@]21C)[C@@]1(C)CC[C@@H](NCCNC(C)C)C[C@@H]1C[C@H]3SC (stereo partly shown) [MSI-2529] | 4 | 64 |  |  |  |  |
| COC(=O)CC[C@@H](C)[C@H]1CCC2C3CC[C@@H]4C[C@@H](NCCNC(C)C)CC[C@]4(C)C3C[C@H](O)[C@@]21C (stereo partly shown) [MSI-2526] |  | 104 |  |  |  |  |
